The values that follow are results of earlier work, collected in US6642378B1, “Process for the synthesis of beta-lactam derivatives” (Antibioticos S.p.A., priority 1999, dated 2003).

The structures appear in SMILES notation. Read-outs that look alike come from different tables or passages of the source.

Data set [1] has as its system rat.
For data set [2] the following is noted: data from MSDS (Material Safety Data Sheet)—OHS.
The mark [3] stands for this setting: oral, data from MSDS (Material Safety Data Sheet)—OHS.

For the compound `CC(C)=O` [Acetone], the “oral DL50 rat” value in data set [1] (setting [3]) is 5800 mg/kg. Also, in data set [2], the Flash point was −18.0 °C.

Consider `CCOC(=O)OCC` [Diethylcarbonate], for which the “oral DL50 rat” value in data set [1] (in vivo, po) is 15000 mg/kg. Moreover, the Flash point in data set [2] is 33.0 °C.

In the case of `COC(=O)OC` [Dimethylcarbonate], in data set [1] (in vivo, po), the “oral DL50 rat” value is 13000 mg/kg. Also, the Flash point in data set [2] is 21.7 °C.

Take `CCOC(C)=O` [Ethyl acetate]: in data set [1] (setting [3]), the “oral DL50 rat” value was 5620 mg/kg. Further, the Flash point in data set [2] was −4.0 °C.

For the compound `COC(C)=O` [Methyl acetate], the “oral DL50 rat” value in data set [1] (in vivo, po) is 5480 mg/kg. In addition, in data set [2], the Flash point is −10.0 °C.

On to `C1CCOC1` [Tetrahydrofuran], for which, in data set [1] (setting [3]), the “oral DL50 rat” value was 2816 mg/kg. For the same compound, in data set [2], the Flash point is −17.2 °C.
